In patent US10028916B2, “Orally disintegrating dosage form for administration of avanafil, and associated methods of manufacture and use” (Vivus, Inc., priority 2014, dated 2018):
Converted amounts (≈) assume the structure as drawn. Where two headings read alike, the source gives them in different places.

Key:
[1] = Aqueous solubility of avanafil by HPLC at a range of pH values; format: physicochemical; details: thermodynamic from solid
Procedure: A high performance liquid chromatography (HPLC) procedure was used to evaluate the aqueous solubility of avanafil (obtained from Tanabe Seiyaku Co., LTD, purity, 97.0% to 103% with an observed purity of 98.89%; particle diameter, 10-20 microns with median observed particle diameter of 18.47 microns) at a range of pH values. The HPLC conditions were as follows: system, HP Model 1100; analytical column, Supelco Kromasil C8, 4.6 mm×250 mm, 5 μm particle size; assay injection volume, 20 μl; stock stability injection volume, 0.5 μl; needle wash volume, 91 μl; mobile phase flow rate, 1.00 ml/minute; column temperature, 30° C.; detection wavelength 246 nm; flow cell path length, 10 mm; range step 2.00 nm; threshold, 1.00 mAU; stop time, 30 minutes. Solutions 1, 2, 3, 6, 7, 8, 11, and 12 were buffered to pH values of 0.99, 2.00, 3.00, 6.00, 7.00, 8.00, 11.0, and 12.0, respectively, using a phosphate buffer, 0.1M KH2PO4. Solutions 4 and 5 were buffered to pH values of 4.00 and 5.00, respectively, using a sodium acetate buffer, 0.1M NaOAc, while solutions 9 and 10 were respectively buffered to pH values of 9.00 and 10.00 using a sodium carbonate buffer, 0.1M Na2CO3.

[2] = as above; format: physicochemical; details: sodium carbonate buffer, thermodynamic from solid, Solution 10, 0.1N Na2CO3, pH 10.0
[3] = cited from earlier work

solubility ([1]; phosphate buffer, aqueous buffer, Solution 1, 0.1M KH2PO4, pH 0.999): > 199000 µg/mL | solubility ([1]; phosphate buffer, aqueous buffer, Solution 2, 0.1M KH2PO4, pH 2.00): 35000 µg/mL (≈ 72300 µM) | solubility ([1]; phosphate buffer, aqueous buffer, Solution 3, 0.1M KH2PO4, pH 3.00): 1700 µg/mL (≈ 3510 µM) | solubility ([1]; phosphate buffer, aqueous buffer, Solution 6, 0.1M KH2PO4, pH 6.00): 1.28 µg/mL (≈ 2.64 µM) | solubility ([1]; phosphate buffer, aqueous buffer, Solution 7, 0.1M KH2PO4, pH 7.00): 0.233 µg/mL (≈ 0.481 µM) | solubility ([1]; phosphate buffer, aqueous buffer, Solution 8, 0.1M KH2PO4, pH 8.00): 0.052 µg/mL (≈ 0.107 µM) | solubility ([1]; phosphate buffer, aqueous buffer, Solution 11, 0.1M KH2PO4, pH 11.0): 0.0568 µg/mL (≈ 0.117 µM) | solubility ([1]; phosphate buffer, aqueous buffer, Solution 12, 0.1M KH2PO4, pH 12.0): < 0.05 µg/mL | solubility ([1]; sodium acetate buffer, aqueous buffer, Solution 4, 0.1M NaOAc, pH 4.00): 344 µg/mL (≈ 711 µM) | solubility ([1]; sodium acetate buffer, aqueous buffer, Solution 5, 0.1M NaOAc, pH 5.00): 19.5 µg/mL (≈ 40.3 µM) | solubility ([1]; sodium carbonate buffer, aqueous buffer, Solution 9, 0.1M Na2CO3, pH 9.00): < 0.05 µg/mL | solubility ([1]; water, ASTM Type II H2O, no buffer): 0.139 µg/mL (≈ 0.287 µM) | solubility [2]: < 0.05 µg/mL
SMILES: COc1ccc(CNc2nc(N3CCC[C@H]3CO)ncc2C(=O)NCc2ncccn2)cc1Cl [avanafil, 4-[(3-chloro-4-methoxybenzyl)amino]-2-[2-(hydroxymethyl)-1-pyrrolidinyl]-N-(2-pyrimidinylmethyl)-5-pyrimidinecarboxamide]
mean reduction in Cmax ([3]; 100 mg with a high fat meal): 24% | mean reduction in Cmax ([3]; 200 mg with a high fat meal): 39% | route of clearance ([3]; result in words, mainly CYP3A4, minor extent CYP2C isoform): cleared predominantly by hepatic metabolism | decrease in AUC ([3]; taken with a high fat meal): ~3.8%
